Measurements as given in the NIST ThermoML archive (doi:10.1016/j.jct.2007.09.001).
Numbers after ± are expanded uncertainties.

Conditions: 298.15 K, Calvet calorimetry with correction to 298 K for gas heat capacity

SMILES	molar enthalpy of sublimation (Crystal)	molar enthalpy of vaporization (Liquid)
Cc1cc(C)n(C)n1 [1,3,5-trimethylpyrazole]	14.7 ± 0.765 kcal/mol	–
Cc1cc[nH]n1 [3-methylpyrazole]	–	15.8 ± 0.956 kcal/mol
